Reference: the CheMixHub viscosity set

Assay: xn = mol fraction of the nth substance listed

O=[N+]([O-])c1ccc(O)cc1 + CCN(CC)CC
298.16 K, 101 kPa
Settings | viscosity [mPa·s]
x1 = 0.5818 | 294.3
x1 = 0.5939 | 366.2
x1 = 0.6179 | 606.8
x1 = 0.6393 | 908.7
x1 = 0.6718 | 2449
x1 = 0.6969 | 3733
x1 = 0.7221 | 6669
x1 = 0.739 | 7410
x1 = 0.7731 | 8242
x1 = 0.7883 | 7522
x1 = 0.8008 | 6867
x1 = 0.8106 | 6269

[I-].[K+] + [2H]O[2H]
viscosity [mPa·s], 101 kPa
Settings | x1 = 0.011 | x1 = 0.021 | x1 = 0.036 | x1 = 0.053 | x1 = 0.076 | x1 = 0.121
298.15 K | 1.036 | 0.97 | 0.942 | 0.936 | 0.972 | 1.098
308.15 K | 0.829 | 0.794 | 0.776 | 0.783 | 0.823 | 0.942
318.15 K | 0.692 | 0.667 | 0.662 | 0.68 | 0.715 | 0.827

CCCC(=O)OCC(COC(=O)CCC)OC(=O)CCC + CCCCO
viscosity [mPa·s], 101.33 kPa
Settings | x1 = 0.1 | x1 = 0.2 | x1 = 0.3 | x1 = 0.4 | x1 = 0.5 | x1 = 0.6 | x1 = 0.7 | x1 = 0.8 | x1 = 0.9
298 K | 2.61 | 3 | 3.46 | 3.99 | 4.58 | 5.23 | 5.96 | 6.73 | 7.66
303 K | 2.31 | 2.64 | 3.03 | 3.48 | 3.97 | 4.54 | 5.14 | 5.77 | 6.54
308 K | 2.04 | 2.33 | 2.68 | 3.06 | 3.45 | 3.95 | 4.45 | 5.01 | 5.64
313 K | 1.83 | 2.08 | 2.38 | 2.7 | 3.06 | 3.48 | 3.9 | 4.37 | 4.89

CCCCN + CO
viscosity [mPa·s]
Settings | 298.15 K | 303.15 K | 313.15 K | 323.15 K
100 kPa, x2 = 0.1 | 0.505 | – | – | –
100 kPa, x2 = 0.203 | 0.552 | – | – | –
100 kPa, x2 = 0.299 | 0.599 | – | – | –
100 kPa, x2 = 0.399 | 0.653 | – | – | –
100 kPa, x2 = 0.501 | 0.707 | – | – | –
100 kPa, x2 = 0.598 | 0.747 | – | – | –
100 kPa, x2 = 0.697 | 0.761 | – | – | –
100 kPa, x2 = 0.796 | 0.732 | – | – | –
100 kPa, x2 = 0.9 | 0.65 | – | – | –
101 kPa, x2 = 0.1159 | – | 0.47 | 0.409 | 0.357
101 kPa, x2 = 0.2309 | – | 0.494 | 0.425 | 0.369
101 kPa, x2 = 0.3289 | – | 0.518 | 0.439 | 0.377
101 kPa, x2 = 0.426 | – | 0.549 | 0.458 | 0.386
101 kPa, x2 = 0.5325 | – | 0.584 | 0.482 | 0.397
101 kPa, x2 = 0.6186 | – | 0.607 | 0.498 | 0.405
101 kPa, x2 = 0.7296 | – | 0.617 | 0.508 | 0.411
101 kPa, x2 = 0.8167 | – | 0.602 | 0.502 | 0.41
101 kPa, x2 = 0.9076 | – | 0.562 | 0.481 | 0.408

CC[N+](=O)[O-] + CCC(C)O
viscosity [mPa·s], 101.33 kPa
Settings | 293.15 K | 303.15 K | 313.15 K
x2 = 0.05 | 0.679 | 0.605 | 0.543
x2 = 0.1 | 0.68 | 0.601 | 0.538
x2 = 0.15 | 0.684 | 0.604 | 0.536
x2 = 0.2001 | 0.704 | 0.616 | 0.542
x2 = 0.25 | 0.727 | 0.632 | 0.555
x2 = 0.3002 | 0.759 | 0.652 | 0.569
x2 = 0.35 | 0.793 | 0.676 | 0.586
x2 = 0.4 | 0.845 | 0.716 | 0.61
x2 = 0.45 | 0.904 | 0.75 | 0.64
x2 = 0.5 | 0.971 | 0.8 | 0.675
x2 = 0.55 | 1.034 | 0.847 | 0.707
x2 = 0.5999 | 1.123 | 0.909 | 0.75
x2 = 0.6499 | 1.236 | 0.98 | 0.801
x2 = 0.7 | 1.378 | 1.07 | 0.862
x2 = 0.7497 | 1.516 | 1.169 | 0.935
x2 = 0.8 | 1.723 | 1.319 | 1.026
x2 = 0.8499 | 1.983 | 1.484 | 1.144
x2 = 0.8998 | 2.353 | 1.724 | 1.304
x2 = 0.9499 | 2.873 | 2.05 | 1.511

O=C(O)C(Cl)(Cl)Cl + CCCCOC(C)=O
323.15 K, 101 kPa
Settings | viscosity [mPa·s]
x2 = 0.104 | 4.361
x2 = 0.187 | 3.749
x2 = 0.3013 | 2.85
x2 = 0.379 | 2.406
x2 = 0.494 | 1.798
x2 = 0.584 | 1.419
x2 = 0.7106 | 0.996
x2 = 0.7901 | 0.81
x2 = 0.929 | 0.588

CCCCC(CC)COP(=O)(OCC(CC)CCCC)OCC(CC)CCCC (configuration not stated) + CCCCCCCC
viscosity [mPa·s], 101 kPa
Settings | x1 = 0.098 | x1 = 0.1989 | x1 = 0.2979 | x1 = 0.381 | x1 = 0.489 | x1 = 0.5902 | x1 = 0.693 | x1 = 0.7952 | x1 = 0.9044
298.15 K | 0.83 | 1.287 | 1.852 | 2.52 | 3.555 | 4.707 | 6.118 | 7.688 | 9.668
303.15 K | 0.773 | 1.183 | 1.674 | 2.264 | 3.136 | 4.108 | 5.242 | 6.565 | 8.204
308.15 K | 0.722 | 1.074 | 1.498 | 2.016 | 2.759 | 3.592 | 4.585 | 5.632 | 6.964

CC(=O)[O-].CCn1cc[n+](CC)c1 + O
viscosity [mPa·s], 100 kPa
Settings | x2 = 0.09432 | x2 = 0.2079 | x2 = 0.3498 | x2 = 0.453 | x2 = 0.5329
298.15 K | 129.4 | 120.3 | 79.4 | 62.7 | 50.4
323.15 K | 38.2 | 36.6 | 26.3 | 21.5 | 17.9

O=C([O-])CC(O)(CC(=O)[O-])C(=O)[O-].[K+].[K+].[K+] + O
viscosity [mPa·s], 101 kPa
Settings | 293.15 K | 298.15 K | 303.15 K | 308.15 K
x1 = 0.0025 | 1.072 | 0.946 | 0.844 | 0.758
x1 = 0.0089 | 1.265 | 1.123 | 1.003 | 0.908
x1 = 0.0177 | 1.478 | 1.32 | 1.187 | 1.07
